Results taken from PMC9692619, “Insights into the 3D In Vitro Permeability and In Vivo Antioxidant Protective Effects of Kiwiberry Leaf Extract: A Step Forward to Human Nutraceutical Use” (International Journal of Molecular Sciences, 2022).
Several values for one entry are separate records, joined by “and”; a condition that tells them apart may be missing. Identical values can stand only once. Marks after values point to notes of the source that are not given here.

Assays:
[1] = system: co-culture model with Caco-2 and HT29-MTX; test: 3D intestinal permeability assay (co-culture, HPLC-MS of basolateral samples); assay type: in vitro ADME; settings: for Permeability (%): 3D intestinal model, compound of kiwiberry leaf extract; for permeation in the 3D intestinal model: time not stated; for permeation (detection after the 3D intestinal permeation assay): aglycones, result in words
Experimental: The intestinal permeability was carried out in a co-culture model with Caco-2 and HT29-MTX [40]. The extract was added to the apical side of the model. A sample from the basolateral side was collected at different timepoints (0, 15, 30, 45, 60, 90, 120, 150, 180, and 240 min). Samples were analyzed by HPLC-MS assay (Section 3.5). The TEER of the model was evaluated before, during and at the end of the permeability assay using an EVOM Epithelial Volthometer Instrument equipped with a chopstick electrode (World Precision Instruments, Sarasota, FL, USA).
The phenolic compounds that permeated the intestinal 3D model were identified and quantified according to Silva et al.. The samples were diluted 10 times with methanol-water (50:50) and centrifuged at 13,300× […] for 15 min. The supernatant was then transferred to a vial for the LC-MS analysis. The standard calibration curves were: • Chlorogenic acid titration curve: y = 198.01x + 20.138 (R^2 = 1) • Rutin titration curve: y = 58.564x + 41.752 (R^2 = 0.9998)
Regarding the multiple reaction monitoring (MRM), the values were: • Chlorogenic acid: 353.5 > 191.2 • Rutin: 609.4 > 301.3 • Coumaroyl quinic acid: 337.3 > 191.3

kidney and liver tissues = test: Histopathological analysis of kidney and liver (hematoxylin-eosin); settings: oral gavage once daily 7 days; extract 50 and 75 mg/kg bw, vitamin C 50 mg/kg bw
Experimental: Young male Wistar rats of 5–6 weeks of age (140–207 g) were acquired from the Jackson Laboratory (Bar Harbor, ME, USA) and acclimatized in polypropylene cages to the environmental conditions (12 h dark/light cycle, controlled temperature (21 ± 2 °C), relative humidity (55 ± 10%) and fed ad libitum with standard pellet diet and water for 1 week before the experiment).
All groups were treated once daily for 7 days by oral gavage after a fasting period of 4 h. The body weight of each animal was recorded twice a week during the experimental period. Blood samples were collected from tail vein and a glucometer (Accu-Chek, Roche® Diabetes Care, Inc., Mississauga, QC, Canada) was used to measure the glucose levels.
After 7 days, the animals were sacrificed by pentobarbital overdose (50 mg/kg bw). The organs (liver and kidneys) were removed, and the blood was collected by cardiac puncture. Serum was separated by centrifugation (20,000× g, 15 min, 4 °C) and stored at −80 °C for biochemical analyses [42]. The organs were dissected from each animal and subsequently mixed with 50 mM potassium phosphate, pH 7.0, and centrifuged (20,000× g, 15 min, 4 °C), according to the kit manufacturer’s instructions. The homogenate supernatants were analyzed by biochemical assays.
The tissue samples (liver and kidney) were preserved in 10% formalin. […]

[2] = Serum biochemical analysis (TC, HDL-C, LDL-C, TG) after 7 days oral treatment; assay type: in vivo, Wistar rats; settings: 50 mg/kg bw oral once daily 7 days
Experimental: (§1) The homogenate supernatants were analyzed by biochemical assays.
Serum was used to analyze the TC, HDL-C, and LDL-C using commercial kits from Sigma-Aldrich (Steinheim, Germany). TG levels were estimated in the blood serum through a commercial kit from Abcam (Cambridge, MA, USA).

CAT = test: In vivo antioxidant parameter: CAT activity in kidney, liver, serum; design: species or system Wistar rats; settings: 50 mg/kg bw oral once daily 7 days
Experimental: as §1
(§2) The antioxidant enzyme activities, namely SOD, CAT, and GSH-Px, were evaluated in the homogenate supernatants from organs through commercial enzymatic kits from Sigma-Aldrich (Steinheim, Germany). The lipid peroxidation was determined through the determination of MDA levels using a commercial kit (Merck, Darmstadt, Germany).

GSH-Px = test: In vivo antioxidant parameter: GSH-Px activity in kidney, liver, serum; design: species or system Wistar rats; settings: 50 mg/kg bw oral once daily 7 days
Experimental: as §1, §2

SOD = test: In vivo antioxidant parameter: SOD activity in kidney, liver, serum; design: species or system Wistar rats; settings: 50 mg/kg bw oral once daily 7 days
Experimental: as §1, §2

MDA = test: Lipid peroxidation: MDA levels in kidney, liver, serum; assay type: in vivo, Wistar rats; settings: 50 mg/kg bw oral once daily 7 days
Experimental: as §1, §2

O=C(/C=C/c1ccc(O)c(O)c1)O[C@@H]1C[C@](O)(C(=O)O)C[C@@H](O)[C@H]1O [Chlorogenic acid]
Permeability (%) ([1]; 15 min): <LOD | Permeability (%) ([1]; 30 min): 1.79 ± 0.09% | Permeability (%) ([1]; 45 min): <LOD | Permeability (%) ([1]; 60 min): <LOD | Permeability (%) ([1]; 90 min): <LOD | Permeability (%) ([1]; 120 min): <LOD | Permeability (%) ([1]; 180 min): <LOD | Permeability (%) ([1]; 240 min): 2.49% | Permeability (%) ([1]; 240 min, listed as Chlorogenic Acid): 2.49 ± 0.13%

O=C(/C=C/c1ccc(O)cc1)O[C@@H]1C[C@](O)(C(=O)O)C[C@@H](O)[C@H]1O [Coumaroyl quinic acid]
Permeability (%) ([1]; 15 min): 1.04 ± 0.05% | Permeability (%) ([1]; 30 min): 18.81 ± 0.94% | Permeability (%) ([1]; 45 min): 7.99 ± 0.39% | Permeability (%) ([1]; 60 min): 13.50 ± 0.68% | Permeability (%) ([1]; 90 min): 19.74 ± 0.99% | Permeability (%) ([1]; 120 min): 14.60 ± 0.73% | Permeability (%) ([1]; 180 min): 24.32 ± 1.22% | Permeability (%) ([1]; 240 min): 34.23% | Permeability (%) ([1]; 240 min, listed as Coumaroyl Quinic Acid): 34.23 ± 1.71% | permeation in the 3D intestinal model [1]: higher than 25%

C[C@@H]1O[C@@H](OC[C@H]2O[C@@H](Oc3c(-c4ccc(O)c(O)c4)oc4cc(O)cc(O)c4c3=O)[C@H](O)[C@@H](O)[C@@H]2O)[C@H](O)[C@H](O)[C@H]1O [Rutin]
Permeability (%) ([1]; 15 min): 6.67 ± 0.33% | Permeability (%) ([1]; 15 min, listed as rutin): 6.67% | Permeability (%) ([1]; 30 min): 10.89 ± 0.54% | Permeability (%) ([1]; 45 min): 17.01 ± 0.85% | Permeability (%) ([1]; 60 min): 14.61 ± 0.73% | Permeability (%) ([1]; 90 min): 14.56 ± 0.73% | Permeability (%) ([1]; 120 min): 18.50 ± 0.93% | Permeability (%) ([1]; 180 min): 18.30 ± 0.92% | Permeability (%) ([1]; 240 min): 25.40 ± 1.27% | Permeability (%) ([1]; 240 min, listed as rutin): 25.40% | permeation in the 3D intestinal model [1]: higher than 25%

O=c1c(O)c(-c2ccc(O)cc2)oc2cc(O)cc(O)c12 [kaempferol]
permeation (detection after the 3D intestinal permeation assay) [1]: absence of permeation

O=c1c(O)c(-c2ccc(O)c(O)c2)oc2cc(O)cc(O)c12 [quercetin]
permeation (detection after the 3D intestinal permeation assay) [1]: absence of permeation

O=C1O[C@H]([C@@H](O)CO)C(O)=C1O [vitamin C]
histopathological examination of kidneys (kidney and liver tissues): did not lead to morphological alterations | HDL-C [2]: 155.09 ± 37.71 mg/dL | LDL-C [2]: 76.24 ± 16.52 mg/dL | TG [2]: 229.76 ± 33.54 ^a mg/dL | TC ([2]; 50 mg/kg): 79.81 mg/dL and 79.81 ± 15.11 mg/dL | CAT, Kidneys (CAT): 427,496 ± 78,015 ^b nmol/min/g protein | CAT, Liver (CAT): 3,762,450 ± 434,242 ^c nmol/min/g protein | CAT, Serum (CAT): 34,911 ± 7975 ^b nmol/min/mL protein | GSH-Px, Kidneys (GSH-Px): 136.66 ± 19.62 ^b units/g protein | GSH-Px, Liver (GSH-Px): 71.34 ± 10.94 ^b,c units/g protein | GSH-Px, Serum (GSH-Px): 20.16 ± 5.29 ^b units/mL protein | SOD, Kidneys (SOD): 123.13 ± 19.27 ^b,c units/g protein | SOD, Liver (SOD): 83.71 ± 6.06 ^b units/g protein | SOD, Serum (SOD): 79.20 ± 5.76 ^b units/mL protein | MDA, Kidneys (MDA): 196,748 ± 31,125 ^a nmol/g protein | MDA, Liver (MDA): 145,827 ± 10,063 ^b nmol/g protein | MDA, Serum (MDA): 746.79 ± 123.55 ^b nmol/mL protein
